# Laboratory results published in PMC4032265 (PLoS ONE, 2014).
# Where two headings read alike, the source gives them in different places.
# Columns and labels:
# [1] = target: 5HT7 serotonergic receptor (Homo sapiens, UniProt P34969); assay: PDSP radioligand binding, 5HT7; conditions: for Ki: full curve, n = 1; for inhibition at 10 µM: read-out: % inhibition at 10 µM, single concentration 10 µM
# [2] = target: 5HT5A serotonergic receptor (Homo sapiens, UniProt P47898); assay: PDSP radioligand binding, 5HT5A; conditions: for inhibition at 10 µM: read-out: % inhibition at 10 µM, single concentration 10 µM
# Chain of 5HT5A serotonergic receptor (P47898 whole entry): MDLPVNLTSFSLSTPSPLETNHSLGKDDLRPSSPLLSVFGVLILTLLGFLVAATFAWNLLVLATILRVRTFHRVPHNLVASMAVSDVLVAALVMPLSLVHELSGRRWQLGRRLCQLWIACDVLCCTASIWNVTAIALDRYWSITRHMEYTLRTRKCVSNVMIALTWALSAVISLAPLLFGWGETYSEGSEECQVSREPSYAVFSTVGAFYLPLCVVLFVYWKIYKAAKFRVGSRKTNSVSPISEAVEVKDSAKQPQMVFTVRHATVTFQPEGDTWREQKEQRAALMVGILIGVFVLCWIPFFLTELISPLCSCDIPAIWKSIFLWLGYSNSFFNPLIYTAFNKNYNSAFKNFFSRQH
# [3] = target: 5HT2A serotonergic receptor (Homo sapiens, UniProt P28223); assay: PDSP radioligand binding, 5HT2A; conditions: read-out: % inhibition at 10 µM
# Chain of 5HT2A serotonergic receptor (P28223 whole entry): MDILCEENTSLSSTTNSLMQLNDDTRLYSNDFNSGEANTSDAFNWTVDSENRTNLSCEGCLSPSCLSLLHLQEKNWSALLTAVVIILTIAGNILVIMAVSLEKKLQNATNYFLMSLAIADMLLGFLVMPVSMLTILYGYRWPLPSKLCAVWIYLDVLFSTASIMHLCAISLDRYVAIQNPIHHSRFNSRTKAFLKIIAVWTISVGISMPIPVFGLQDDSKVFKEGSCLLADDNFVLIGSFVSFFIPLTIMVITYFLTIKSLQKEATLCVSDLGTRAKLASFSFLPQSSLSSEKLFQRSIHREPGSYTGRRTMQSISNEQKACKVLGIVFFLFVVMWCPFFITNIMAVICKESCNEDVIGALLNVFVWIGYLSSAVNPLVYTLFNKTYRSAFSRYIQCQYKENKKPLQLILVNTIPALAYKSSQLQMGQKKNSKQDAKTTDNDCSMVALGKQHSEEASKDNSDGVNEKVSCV
# [4] = target: H3 histaminergic receptor (Homo sapiens, UniProt Q9Y5N1); assay: PDSP radioligand binding, H3; conditions: read-out: % inhibition at 10 µM; single concentration 10 µM
# Chain of H3 histaminergic receptor (Q9Y5N1 whole entry): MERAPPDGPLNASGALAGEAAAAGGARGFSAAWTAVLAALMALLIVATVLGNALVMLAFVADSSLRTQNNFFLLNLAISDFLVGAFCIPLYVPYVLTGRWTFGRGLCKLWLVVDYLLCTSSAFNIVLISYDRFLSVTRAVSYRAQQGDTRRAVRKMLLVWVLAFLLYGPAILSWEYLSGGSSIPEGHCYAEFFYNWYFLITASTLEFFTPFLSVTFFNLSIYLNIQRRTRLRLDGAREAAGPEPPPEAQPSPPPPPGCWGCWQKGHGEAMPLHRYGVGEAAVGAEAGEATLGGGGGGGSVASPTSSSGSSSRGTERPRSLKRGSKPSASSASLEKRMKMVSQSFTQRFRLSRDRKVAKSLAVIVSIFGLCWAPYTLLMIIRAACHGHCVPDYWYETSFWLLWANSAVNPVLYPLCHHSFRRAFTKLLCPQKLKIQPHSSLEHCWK
# µ opioid receptor = µ opioid receptor (Homo sapiens, UniProt P35372); assay: PDSP radioligand binding, µ opioid; conditions: read-out: % inhibition at 10 µM; single concentration 10 µM
# Chain of µ opioid receptor (P35372 whole entry): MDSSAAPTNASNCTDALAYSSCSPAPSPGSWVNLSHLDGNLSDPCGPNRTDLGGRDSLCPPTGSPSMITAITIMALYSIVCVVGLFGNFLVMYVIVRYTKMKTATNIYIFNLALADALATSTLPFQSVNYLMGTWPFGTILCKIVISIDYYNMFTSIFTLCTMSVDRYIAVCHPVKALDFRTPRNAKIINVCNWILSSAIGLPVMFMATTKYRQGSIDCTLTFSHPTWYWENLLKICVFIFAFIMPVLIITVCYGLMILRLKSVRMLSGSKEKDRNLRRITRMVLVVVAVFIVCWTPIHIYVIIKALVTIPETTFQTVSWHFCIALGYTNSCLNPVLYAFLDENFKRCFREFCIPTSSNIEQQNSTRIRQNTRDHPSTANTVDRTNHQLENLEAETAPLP
# GABAA receptor = assay: PDSP radioligand binding, GABAA; conditions: single concentration 10 µM
# σ2 receptor = target: T1, σ2 receptor (Rattus norvegicus, UniProt Q5U3Y7); assay: PDSP radioligand binding, σ2; conditions: for inhibition at 10 µM: read-out: % inhibition at 10 µM, single concentration 10 µM; for Ki: full curves, n = 2
# T1 sequence (Q5U3Y7 1-176): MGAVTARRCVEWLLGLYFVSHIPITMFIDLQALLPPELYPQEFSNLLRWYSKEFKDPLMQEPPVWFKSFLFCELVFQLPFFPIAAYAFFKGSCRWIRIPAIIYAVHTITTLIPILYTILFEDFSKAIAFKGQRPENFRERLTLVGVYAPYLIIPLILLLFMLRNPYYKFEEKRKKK
# [5] = target: T2, 5HT1A serotonergic receptor (Homo sapiens, UniProt P08908); assay: PDSP radioligand binding, 5HT1A; conditions: read-out: % inhibition at 10 µM; single concentration 10 µM
# T2 sequence (P08908 1-422): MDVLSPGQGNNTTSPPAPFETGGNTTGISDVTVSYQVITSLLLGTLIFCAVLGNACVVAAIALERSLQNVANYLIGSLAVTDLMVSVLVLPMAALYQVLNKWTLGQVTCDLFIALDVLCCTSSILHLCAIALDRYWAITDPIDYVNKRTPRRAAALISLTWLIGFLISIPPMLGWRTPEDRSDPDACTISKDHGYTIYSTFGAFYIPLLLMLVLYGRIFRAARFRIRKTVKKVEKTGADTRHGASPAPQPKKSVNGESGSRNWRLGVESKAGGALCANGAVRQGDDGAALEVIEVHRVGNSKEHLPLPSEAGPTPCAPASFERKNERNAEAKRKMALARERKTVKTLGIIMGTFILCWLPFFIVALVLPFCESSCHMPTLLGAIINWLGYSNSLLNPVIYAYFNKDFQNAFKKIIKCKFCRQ
# [6] = target: 5HT1D serotonergic receptor (Homo sapiens, UniProt P28221); assay: PDSP radioligand binding, 5HT1D; conditions: read-out: % inhibition at 10 µM; single concentration 10 µM
# Chain of 5HT1D serotonergic receptor (P28221 whole entry): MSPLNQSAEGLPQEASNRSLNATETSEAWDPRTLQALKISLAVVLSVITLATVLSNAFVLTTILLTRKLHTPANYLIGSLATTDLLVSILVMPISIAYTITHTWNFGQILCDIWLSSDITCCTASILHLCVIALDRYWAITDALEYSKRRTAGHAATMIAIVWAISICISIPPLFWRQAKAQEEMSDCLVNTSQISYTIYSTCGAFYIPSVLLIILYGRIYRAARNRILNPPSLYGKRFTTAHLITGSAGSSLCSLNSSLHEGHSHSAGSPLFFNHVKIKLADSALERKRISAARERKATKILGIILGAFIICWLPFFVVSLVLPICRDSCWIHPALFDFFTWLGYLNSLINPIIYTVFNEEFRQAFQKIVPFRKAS
# D3 dopaminergic receptor = D3 dopaminergic receptor (Homo sapiens, UniProt P35462); assay: PDSP radioligand binding, D3; conditions: read-out: % inhibition at 10 µM; single concentration 10 µM
# Chain of D3 dopaminergic receptor (P35462 whole entry): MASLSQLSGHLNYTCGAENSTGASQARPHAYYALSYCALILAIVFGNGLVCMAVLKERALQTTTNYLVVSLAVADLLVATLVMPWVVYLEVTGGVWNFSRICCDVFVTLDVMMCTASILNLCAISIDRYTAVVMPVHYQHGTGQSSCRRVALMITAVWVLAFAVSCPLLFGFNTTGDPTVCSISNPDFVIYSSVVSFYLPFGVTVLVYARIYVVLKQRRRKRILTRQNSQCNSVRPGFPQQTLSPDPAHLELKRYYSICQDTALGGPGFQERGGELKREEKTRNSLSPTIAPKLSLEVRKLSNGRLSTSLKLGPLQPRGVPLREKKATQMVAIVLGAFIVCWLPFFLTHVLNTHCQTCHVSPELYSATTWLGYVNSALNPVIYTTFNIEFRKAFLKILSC
# hERG potassium channel = hERG potassium channel (Homo sapiens, UniProt Q12809); assay: PDSP hERG functional assay; assay type: cell-based
# 5HT3 ion channels = target: T3, 5HT3 ion channels (Homo sapiens, UniProt P46098); assay: PDSP radioligand binding, 5HT3 ion channel; conditions: for inhibition at 10 µM: read-out: % inhibition at 10 µM, single concentration 10 µM
# T3 sequence (P46098 24-478): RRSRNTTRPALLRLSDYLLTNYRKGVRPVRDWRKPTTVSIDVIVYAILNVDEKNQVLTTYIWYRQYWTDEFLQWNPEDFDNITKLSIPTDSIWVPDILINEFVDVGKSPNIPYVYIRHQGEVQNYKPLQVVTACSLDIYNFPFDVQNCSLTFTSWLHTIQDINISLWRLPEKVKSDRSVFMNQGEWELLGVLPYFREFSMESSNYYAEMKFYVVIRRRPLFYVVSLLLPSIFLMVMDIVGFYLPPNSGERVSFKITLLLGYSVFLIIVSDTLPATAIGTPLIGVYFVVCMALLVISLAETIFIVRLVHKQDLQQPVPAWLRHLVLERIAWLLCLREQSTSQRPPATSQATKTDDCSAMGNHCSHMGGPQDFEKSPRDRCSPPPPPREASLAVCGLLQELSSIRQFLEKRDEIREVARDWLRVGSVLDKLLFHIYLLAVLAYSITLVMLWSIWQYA
# [7] = target: M3 muscarinic acetylcholine receptor (Homo sapiens, UniProt P20309); assay: PDSP radioligand binding, M3; conditions: read-out: % inhibition at 10 µM; single concentration 10 µM
# Chain of M3 muscarinic acetylcholine receptor (P20309 whole entry): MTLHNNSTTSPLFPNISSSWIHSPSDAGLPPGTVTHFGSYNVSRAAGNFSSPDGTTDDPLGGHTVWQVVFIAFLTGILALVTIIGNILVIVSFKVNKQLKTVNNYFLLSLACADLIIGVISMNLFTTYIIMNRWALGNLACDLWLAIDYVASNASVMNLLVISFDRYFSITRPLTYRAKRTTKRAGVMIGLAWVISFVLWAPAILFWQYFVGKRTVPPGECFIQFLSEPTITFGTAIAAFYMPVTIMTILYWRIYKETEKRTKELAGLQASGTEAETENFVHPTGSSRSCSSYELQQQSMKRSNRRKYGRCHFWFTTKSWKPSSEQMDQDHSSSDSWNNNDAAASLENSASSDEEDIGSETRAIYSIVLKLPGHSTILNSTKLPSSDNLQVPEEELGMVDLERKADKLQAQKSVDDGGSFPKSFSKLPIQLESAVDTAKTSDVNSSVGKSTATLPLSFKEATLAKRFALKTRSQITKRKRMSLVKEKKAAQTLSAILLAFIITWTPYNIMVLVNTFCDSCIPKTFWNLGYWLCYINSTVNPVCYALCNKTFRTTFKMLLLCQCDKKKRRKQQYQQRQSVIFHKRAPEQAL
# β3 adrenergic receptor = β3 adrenergic receptor (Homo sapiens, UniProt P13945); assay: PDSP radioligand binding, β3; conditions: for inhibition at 10 µM: read-out: % inhibition at 10 µM, single concentration 10 µM; for Ki: full concentration-response curves, n = 3-6 unless noted
# Chain of β3 adrenergic receptor (P13945 whole entry): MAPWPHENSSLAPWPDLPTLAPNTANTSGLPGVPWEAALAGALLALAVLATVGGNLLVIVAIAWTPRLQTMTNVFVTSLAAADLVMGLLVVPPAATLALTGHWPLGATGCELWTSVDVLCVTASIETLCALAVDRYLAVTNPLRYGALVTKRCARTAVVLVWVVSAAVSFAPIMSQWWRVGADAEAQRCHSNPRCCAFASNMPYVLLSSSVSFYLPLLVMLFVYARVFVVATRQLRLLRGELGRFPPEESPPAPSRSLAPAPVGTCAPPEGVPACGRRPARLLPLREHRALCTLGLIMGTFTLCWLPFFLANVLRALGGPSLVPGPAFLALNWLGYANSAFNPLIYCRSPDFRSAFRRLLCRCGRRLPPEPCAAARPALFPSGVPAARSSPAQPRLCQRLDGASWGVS
# [8] = target: T4, M4 muscarinic acetylcholine receptor (Homo sapiens, UniProt P08173); assay: PDSP radioligand binding, M4; conditions: read-out: % inhibition at 10 µM; single concentration 10 µM
# T4 sequence (P08173 1-479): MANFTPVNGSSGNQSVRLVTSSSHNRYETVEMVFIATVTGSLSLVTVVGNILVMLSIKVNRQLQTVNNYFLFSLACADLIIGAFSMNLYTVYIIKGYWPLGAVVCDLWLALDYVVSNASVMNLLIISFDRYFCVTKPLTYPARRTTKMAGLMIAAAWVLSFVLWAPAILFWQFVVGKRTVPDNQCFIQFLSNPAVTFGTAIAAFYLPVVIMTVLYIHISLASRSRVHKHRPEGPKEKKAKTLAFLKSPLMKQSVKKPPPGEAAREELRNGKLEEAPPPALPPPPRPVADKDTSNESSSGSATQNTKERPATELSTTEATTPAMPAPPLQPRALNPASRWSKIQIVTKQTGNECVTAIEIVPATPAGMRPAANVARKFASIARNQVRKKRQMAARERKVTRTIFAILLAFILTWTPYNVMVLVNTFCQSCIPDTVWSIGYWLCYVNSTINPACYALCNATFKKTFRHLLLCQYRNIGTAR
# κ opioid receptor = κ opioid receptor (Homo sapiens, UniProt P41145); assay: PDSP radioligand binding, κ opioid; conditions: read-out: % inhibition at 10 µM; single concentration 10 µM
# Chain of κ opioid receptor (P41145 whole entry): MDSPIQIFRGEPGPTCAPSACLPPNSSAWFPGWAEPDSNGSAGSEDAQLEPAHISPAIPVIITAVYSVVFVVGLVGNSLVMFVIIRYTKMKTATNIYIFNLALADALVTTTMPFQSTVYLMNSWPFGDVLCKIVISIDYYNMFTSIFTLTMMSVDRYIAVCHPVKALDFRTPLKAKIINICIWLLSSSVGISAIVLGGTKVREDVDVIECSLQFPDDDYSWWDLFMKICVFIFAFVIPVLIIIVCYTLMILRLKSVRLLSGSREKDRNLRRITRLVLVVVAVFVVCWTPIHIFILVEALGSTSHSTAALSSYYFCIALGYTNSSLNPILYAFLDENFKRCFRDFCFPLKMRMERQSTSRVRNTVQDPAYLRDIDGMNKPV
# [9] = target: H4 histaminergic receptor (Homo sapiens, UniProt Q9H3N8); assay: PDSP radioligand binding, H4; conditions: read-out: % inhibition at 10 µM; single concentration 10 µM
# Chain of H4 histaminergic receptor (Q9H3N8 whole entry): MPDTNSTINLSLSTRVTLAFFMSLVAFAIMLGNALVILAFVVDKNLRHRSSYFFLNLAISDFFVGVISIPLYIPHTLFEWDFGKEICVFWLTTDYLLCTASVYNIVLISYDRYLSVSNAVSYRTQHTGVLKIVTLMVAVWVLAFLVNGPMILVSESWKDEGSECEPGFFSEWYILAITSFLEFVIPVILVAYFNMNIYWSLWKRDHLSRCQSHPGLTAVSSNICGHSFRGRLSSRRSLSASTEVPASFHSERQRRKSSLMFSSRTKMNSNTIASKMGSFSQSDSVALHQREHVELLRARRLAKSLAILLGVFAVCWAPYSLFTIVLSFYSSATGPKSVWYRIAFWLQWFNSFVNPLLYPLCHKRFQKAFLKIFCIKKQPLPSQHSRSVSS
# Chain of 5HT7 serotonergic receptor (P34969 whole entry): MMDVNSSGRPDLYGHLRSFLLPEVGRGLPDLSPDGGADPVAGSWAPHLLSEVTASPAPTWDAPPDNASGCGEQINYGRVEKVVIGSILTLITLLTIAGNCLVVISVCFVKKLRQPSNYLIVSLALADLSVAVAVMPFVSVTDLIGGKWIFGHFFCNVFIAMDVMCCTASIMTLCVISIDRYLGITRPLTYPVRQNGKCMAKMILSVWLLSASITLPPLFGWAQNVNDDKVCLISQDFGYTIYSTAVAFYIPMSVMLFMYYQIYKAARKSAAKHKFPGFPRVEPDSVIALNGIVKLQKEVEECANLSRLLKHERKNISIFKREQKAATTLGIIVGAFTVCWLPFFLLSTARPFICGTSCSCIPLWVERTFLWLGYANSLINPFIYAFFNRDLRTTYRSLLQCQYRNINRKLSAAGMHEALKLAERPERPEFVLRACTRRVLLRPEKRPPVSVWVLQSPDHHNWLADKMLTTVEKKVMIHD
Compound,Ki [1] [µM],inhibition at 10 µM [1] [%],inhibition at 10 µM [2] [%],inhibition at 10 µM ([3]; single concentration 10 µM) [%],inhibition at 10 µM [4] [%],inhibition at 10 µM (µ opioid receptor) [%],% inhibition at 10 µM (GABAA receptor) [%],inhibition at 10 µM (σ2 receptor) [%],inhibition at 10 µM [5] [%],inhibition at 10 µM [6] [%],inhibition at 10 µM (D3 dopaminergic receptor) [%],inhibition at 10 µM (5HT3 ion channels) [%],inhibition at 10 µM [7] [%],inhibition at 10 µM (β3 adrenergic receptor) [%],inhibition at 10 µM [8] [%],inhibition at 10 µM (κ opioid receptor) [%],inhibition at 10 µM [3] [%],Ki (β3 adrenergic receptor) [µM],Ki (σ2 receptor) [µM],inhibition at 10 µM [9] [%],further results
CNC(=O)[C@@]12C[C@@H]1[C@@H](n1cnc3c(NCc4cccc(Cl)c4)nc(Cl)nc31)[C@H](O)[C@@H]2O [Compound 4],7.73,40 ± 7,21,34,0,1,0,0,29,31,22,5,1,0,30,6,,,,,"inhibition at 10 µM (hERG potassium channel; human, single point 10 µM): 2%"
CNC(=O)[C@@]12C[C@@H]1[C@@H](n1cnc3c(NC)nc(C#Cc4ccc(F)c(F)c4)nc31)[C@H](O)[C@@H]2O [Compound 5],,0,5,,0,5,0,33,10,13,4,2,5,22,0,21,11,2.32 ± 0.39,,,Ki (hERG potassium channel; not binding): 7.93 µM
O[C@@H]1[C@H](O)[C@@H]2C[C@@H]2[C@H]1n1cnc2c(NCc3cccc(Cl)c3)nc(C#Cc3ccc(F)c(F)c3)nc21 [Compound 6],,0,15,6,0,0,,69,9,12,0,0,0,27,32,29,,2.46 ± 0.13,2.94 ± 1.5,,
O[C@@H]1[C@H](O)[C@@H]2C[C@@H]2[C@H]1n1cnc2c(NCc3cccc(Cl)c3)ncnc21 [Compound 7],3.92,35 ± 2,16,7,0,1,0,66,28,4,4,83,11,4,4,4,,,2.68 ± 0.47,0,"Ki (5HT3 ion channels; full concentration-response curves, n = 3-6 unless noted): 3.26 ± 0.8 µM"
Fc1ccc(C#Cc2nc(NCc3cccc(Cl)c3)c3nc[nH]c3n2)cc1F [Compound 8],,0,11,9,0,15,0,14,11,26,23,0,10,5,4,15,,,,5,
Clc1cccc(CNc2nc(Cl)nc3[nH]cnc23)c1 [Compound 9],,12,38,,3,0,8,0,12,14,6,28,0,0,0,0,0,,,5,Ki [2]: 4.49 µM
